Assay [1] concerns A(adenine)-T(thymine) DNA copolymer. Briefly: Change in Tm (melting temperature) of DNA copolymer on addition of compound (Test 1). The note with it: for ΔTm: difference between Tm with and without compound, citrated buffer. Format: binding. As to the method: To investigate bonding of these compounds with DNA, changes in Tm (melting temperature) were measured. With respect of each of these compounds, the measurement was conducted by determining the difference between Tm measured when a citrated buffer solution of an A(adenine)-T(thymine) DNA copolymer was added with the compound and that measured when the compound was not added. For the measurement, a spectrophotometer ("HITACHI U-3200 MODEL") was used and for temperature control, "HITACHI SPR-10 MODEL" was used.

The subject of the next assay is mouse B16 melanoma cells. As to the kind of experiment: In vitro inhibition of proliferation of tumored cells, mouse B16 melanoma (Test 2). Format: cell-based. The note with it: 3 days in 5% CO2 at 37° C., 96-well plate; for IC50: Mus musculus, B16, 72 h, read-out: 50% Inhibition. As to the method: A description will next be made of antitumor activities of these compounds. Their antitumor activities were determined by measuring their in vitro inhibition of proliferation of tumored cells. Namely, mouse B16 melanoma cells were spread over a 96-well culture plate. One day later, each drug was applied. The melanoma cells were then incubated for 3 days in 5% CO2 at 37° C. Following the method reported in Cancer Res., 48, 589-601(1988), the concentration of the drug required to induce 50% inhibition on the proliferation was determined. As a comparative example, the results obtained from the application of distamycin are also shown.

Assay [2] concerns Colon 26 mouse colon cancer cells. As to the kind of experiment: In vivo antitumor activity, Colon 26 subcutaneously transplanted to female CDF1 mice (Test 4). The following applies: caudal vein, tumor weight on day 15. As to the method: Prepared was a 1×10^7 cells/ml suspension of Colon 26 mouse colon cancer cells in HBSS (Hanks' Balanced Salt Solution). A 0.1 ml portion of the cell suspension was subcutaneously transplanted to a lateroabdominal part of each female CDF1 mouse. After the body weight of the mouse was measured on the following day of the transplantation of the tumor, a solution of a compound (5% glucose solution containing 5% of "Tween 80") was administered into the caudal vein of the mouse. On day 15, a tumor was excised and its weight was measured.
The percentage of the average tumor weight of each experiment group as calculated by supposing that the average tumor weight of the control group not administered with any drug was 100% was calculated as a T/C value.
Corresponding to each compound number, its T/C value is shown. The number in parentheses indicates the concentration of the drug when the T/C value was indicated.

The subject of a further assay is P388 leukemia cells. Briefly: In vivo antitumor activity, P388 leukemia intraperitoneally transplanted to female CDF1 mice (Test 3). Set-up: species or system mouse; ILS: unit not given here. The note with it: intraperitoneal, one, five and nine days after transplantation. As to the method:
In vivo antitumor activities of these compounds were also studied. P388 leukemia cells (10^6 cells/mouse) were intraperitoneally transplanted to female CDF1 mice. One, five and nine days later, each compound was intraperitoneally administered (at 1, 3 or 10 mg/kg) to the mice. As a blank test, 5% glucose was intraperitoneally administered at 10 ml/kg to mice. Based on the group of the mice in the blank test as a control group, the effects of the individual drugs are shown in terms of ILS. The term "ILS" is represented by the following formula: [formula]
When test animals survived 8 weeks after the administration, the number of those survived was recorded without calculation of ILS.

Converted amounts (≈) assume the structure as drawn. Counter-ions that a name gives are not always drawn.

Turning to `Cn1cc(C=O)cc1-c1nc2cc(C(=O)NCCC(=N)N)ccc2[nH]1`, the “binding to DNA indicated by Tm (in words)” value in assay [1] (melting temperature of double-stranded DNA) is given as “increased Tm value”.
The term T/C denotes the result in the treated group divided by that in the control group, in per cent. With `Cn1cc(NC(=O)c2ccc(N(CCCl)CCCl)cc2)cc1-c1nc2cc(C(=O)NCCC(=N)N)ccc2[nH]1` [Compound 1, 1H-2-[4-[4-[N,N-bis(2-chloroethyl)amino]benzoylamino]-1-methylpyrrol-2-yl]benzimidazole-5-[N-(2-amidinoethyl)]carboxamide hydrochloride], the “50% Inhibition” value with mouse B16 melanoma cells is 0.23 µg/mL. Also, in assay [2] (2 mg/Kg), the T/C came out at 29%. The molecule further had an ILS in the assay with P388 leukemia cells (1 mg/kg) of 38.
Broadly, the ΔTm is the change in melting temperature against a reference sample. Consider `Cn1cc(NC(=O)CCCc2ccc(N(CCCl)CCCl)cc2)cc1-c1nc2cc(C(=O)NCCC(=N)N)ccc2[nH]1` [Compound 4, 1H-2-[4-[4-[4-[N,N-bis(2-chloroethyl)amino]phenyl]butylylamino]-1-methylpyrrol-2-yl]benzimidazole-5-[N-(2-amidinoethyl)]carboxamide hydrochloride], for which the “50% Inhibition” value in the assay on mouse B16 melanoma cells is 0.04 µg/mL. In assay [1], the ΔTm was found to be 17 °C.
With `Cn1cc(NC=O)cc1-c1nc2cc(C(=O)NCCC(=N)N)ccc2[nH]1` [Compound 318, 1H-2-(4-Formylamino-1-methylpyrrol-2-yl)benzimidazole-5-[N-(2-amidinoethyl)]carboxamide hydrochloride], the IC50 with mouse B16 melanoma cells was found to be 19.8 µg/mL. Further, the ΔTm in assay [1] came to 7 °C.
Regarding `Cn1cc(NC(=O)CNC(=N)N)cc1-c1nc2cc(C(=O)Nc3ccc(N(CCCl)CCCl)cc3)ccc2[nH]1` [Compound 1001, 1H-2-[1-Methyl-4-(2-guanidinoacetylamino)pyrrol-2-yl]benzimidazole-5-[N-[4-[N,N-bis(2-chloroethyl)amino]phenyl]]carboxamide hydrochloride], the “50% Inhibition” value with mouse B16 melanoma cells was 0.53 µg/mL. The T/C in assay [2] (6 mg/Kg) is given as 7%. The same molecule yielded an ILS in the assay with P388 leukemia cells (10 mg/kg) of 115.
As to `Cn1cc(NC(=O)CNC(=N)N)cc1-c1nc2cc(C(=O)NCCc3ccc(N(CCCl)CCCl)cc3)ccc2[nH]1` [Compound 1003, 1H-2-[4-(2-Guanidinoacetylamino)-1-methylpyrrol-2-yl]benzimidazole-5-[N-[2-[4-[N,N-bis(2-chloroethyl)amino]phenyl]ethyl]]carboxamide hydrochloride], the “50% Inhibition” value in the assay with mouse B16 melanoma cells turned out to be 0.018 µg/mL. The T/C in assay [2] (0.3 mg/Kg) is reported as 41%.
For the molecule `Cc1cc(NC(=O)c2ccc3[nH]c(-c4cc(NC(=O)CNC(=N)N)cn4C)nc3c2)ccc1N(CCCl)CCCl` [Compound 1005, 1H-2-[1-Methyl-4-(2-guanidinoacetylamino)pyrrol-2-yl]benzimidazole-5-[N-[3-methyl-4-[N,N-bis(2-chloroethyl)amino]phenyl]]carboxamide dihydrochloride], the “50% Inhibition” value with mouse B16 melanoma cells was determined as 0.65 µg/mL. Further, the T/C in assay [2] (15 mg/Kg) was 20%.
`COc1cc(NC(=O)c2ccc3[nH]c(-c4cc(NC(=O)CNC(=N)N)cn4C)nc3c2)ccc1N(CCCl)CCCl` [Compound 1009, 1H-2-[1-Methyl-4-(guanidinoacetylamino)pyrrol-2-yl]benzimidazole-5-[N-[3-methoxy-4-[N,N-bis(2-chloroethyl)amino]phenyl]]carboxamide dihydrochloride]: the “50% Inhibition” value in the assay with mouse B16 melanoma cells amounted to 2.31 µg/mL. Besides, the T/C in assay [2] (10 mg/Kg) is 29%.
Turning to `Cn1cc(NC(=O)CNC(=N)N)cc1-c1nc2cc(C(=O)Nc3ccc(N(CCCl)CCCl)c(C#N)c3)ccc2[nH]1` [Compound 1013, 1H-2-[1-Methyl-4-(guanidinoacetylamino)pyrrol-2-yl]benzimidazole-5-[N-[3-cyano-4-[N,N-bis(2-chloroethyl)amino]phenyl]]carboxamide dihydrochloride], the “50% Inhibition” value in the assay with mouse B16 melanoma cells was 0.34 µg/mL. This molecule also displayed a T/C in assay [2] (3 mg/Kg) of 58%.
For `Cn1cc(NC(=O)CNC(=N)N)cc1-c1nc2cc(C(=O)Nc3ccc(N(CCCl)CCCl)c(Cl)c3)ccc2[nH]1` [Compound 1017, 1H-2-[1-Methyl-4-(guanidinoacetylamino)pyrrol-2-yl]benzimidazole-5-[N-[3-chloro-4-[N,N-bis(2-chloroethyl)amino]phenyl]]carboxamide dihydrochloride] the same measures were 0.78 µg/mL and 30%.
Turning to `Cc1cc(N(CCCl)CCCl)ccc1NC(=O)c1ccc2[nH]c(-c3cc(NC(=O)CNC(=N)N)cn3C)nc2c1` [Compound 1024, 1H-2-[1-Methyl-4-(guanidinoacetylamino)pyrrol-2-yl]benzimidazole-5-[N-[2-methyl-4-[N,N-bis(2-chloroethyl)amino]phenyl]]carboxamide dihydrochloride], the “50% Inhibition” value in the assay with mouse B16 melanoma cells was 0.586 µg/mL. Moreover, in assay [2] (10 mg/Kg), the T/C is listed as 61%.
Take `CN(C)CCCC(=O)Nc1cc(-c2nc3cc(C(=O)Nc4ccc(N(CCCl)CCCl)cc4)ccc3[nH]2)n(C)c1` [Compound 1256, 1H-2-[1-Methyl-4-[4-(N,N-dimethylamino)butyrylamino]pyrrol-2-yl]benzimidazole-5-[N-[4-[N,N-bis-(2-chloroethyl)amino]phenyl]]carboxamide hydrochloride]: the “50% Inhibition” value in the assay on mouse B16 melanoma cells was 4.67 µg/mL. Moreover, in assay [2] (15 mg/Kg), the T/C worked out at 60%.
Consider `Cn1cc(NC(=O)c2cc(NC(=O)c3cc(NC=O)cn3C)cn2C)cc1C(=O)NCCC(=N)N` [Distamycin, distamycin, reference compound], for which the IC50 with mouse B16 melanoma cells was 36 µg/mL (≈ 74.8 µM). The ΔTm in assay [1] was determined as 10 °C.

The values above are taken from patent publication US5852011A, “Benzimidazole derivatives” (Mitsui Chemicals, Inc., priority 1994, dated 1998).
